Reference: the NIST ThermoML archive (doi:10.1021/je700662a)
Several values for one entry are separate records, joined by “and”; a condition that tells them apart may be missing. Equal values may be shown once.

Tests used:
[1] = Molar enthalpy of transition or fusion; conditions: DSC
[2] = molar heat capacity at constant pressure; conditions: 101.33 kPa, Large sample (1 g) DSC
[3] = DTA

CC(C)C(N)=O [2-methylpropanamide]
Crystal
Conditions | Molar enthalpy of transition or fusion | Normal melting temperature
[1] | 4.59 kcal/mol and 4.61 kcal/mol | –
[3] | – | 127.0 °C and 127.2 °C

[2], Crystal
Conditions | molar heat capacity at constant pressure [J/K/mol]
183 K | 100.8
188 K | 102.9
193 K | 105
198 K | 107.1
203 K | 110.5
208 K | 112.4
213 K | 114
218 K | 115.6
223 K | 118.7
228 K | 120.3
233 K | 122.8
238 K | 124.8
243 K | 127.3
248 K | 130.8
253 K | 132.6
258 K | 134.6
263 K | 137.6
268 K | 138.8
273 K | 141.9
278 K | 144.6
283 K | 146.5
288 K | 148.5
293 K | 150.9
298 K | 152.4
303 K | 154.1
308 K | 158
313 K | 160.2
318 K | 162.7
323 K | 164.5

CCCCCCCC(N)=O [octanamide]
Conditions | Molar enthalpy of transition or fusion, Crystal 1 | Molar enthalpy of transition or fusion, Crystal 2 | Molar enthalpy of transition or fusion, Crystal 3 [kcal/mol] | Normal melting temperature, Crystal 1 | Triple point temperature, Crystal 2 | Triple point temperature, Crystal 3 [K]
[1] | 6.6 kcal/mol and 6.5 kcal/mol | 0.232 kcal/mol and 0.237 kcal/mol | 0.457 | – | – | –
[3] | – | – | – | 104 °C and 104.6 °C | 304.5 K and 304.5 K | 194.4

[2]
Conditions | molar heat capacity at constant pressure [J/K/mol]
183 K, Crystal 3 | 164.7
188 K, Crystal 3 | 169
193 K, Crystal 3 | 174.2
198 K, Crystal 2 | 180.6
203 K, Crystal 2 | 189.7
208 K, Crystal 2 | 197.1
213 K, Crystal 2 | 204.6
218 K, Crystal 2 | 213.2
223 K, Crystal 2 | 224.4
228 K, Crystal 2 | 228.2
233 K, Crystal 2 | 232.8
238 K, Crystal 2 | 234.3
243 K, Crystal 2 | 235.1
248 K, Crystal 2 | 236.3
253 K, Crystal 2 | 233.9
258 K, Crystal 2 | 236.1
263 K, Crystal 2 | 238.3
268 K, Crystal 2 | 235.4
273 K, Crystal 2 | 241.2
278 K, Crystal 2 | 242.7
283 K, Crystal 2 | 243.9
288 K, Crystal 2 | 244.9
293 K, Crystal 2 | 246.5
298 K, Crystal 2 | 245.1
303 K, Crystal 2 | 246.7
308 K, Crystal 1 | 249.3
313 K, Crystal 1 | 251.8

CC(C)(C)C(N)=O [2,2-dimethylpropanamide]
Crystal
Conditions | Molar enthalpy of transition or fusion | Normal melting temperature
[1] | 5.76 kcal/mol and 6.12 kcal/mol | –
[3] | – | 152.2 °C and 152.5 °C

[2], Crystal
Conditions | molar heat capacity at constant pressure [J/K/mol]
188 K | 115.7
193 K | 117.6
198 K | 120.8
203 K | 123
208 K | 124.8
213 K | 126.4
218 K | 129.1
223 K | 131.5
228 K | 133.4
233 K | 136.6
238 K | 137.9
243 K | 140.2
248 K | 142.8
253 K | 144.5
258 K | 147.5
263 K | 149.2
268 K | 150.9
273 K | 153.8
278 K | 156.3
283 K | 158.3
288 K | 161.1
293 K | 163
298 K | 163.7
303 K | 165.4
308 K | 167.9
313 K | 170.2
318 K | 172.7
323 K | 174.2

CCCCCC(N)=O [hexanamide]
Conditions | Molar enthalpy of transition or fusion, [1] | Normal melting temperature, [3] | Triple point temperature, [3]
Crystal 1 | 3.99 kcal/mol and 4.21 kcal/mol | 100 °C and 100 °C | –
Crystal 2 | 1.89 kcal/mol | – | 305.1 K and 306 K

[2], Crystal 2
Conditions | molar heat capacity at constant pressure [J/K/mol]
183 K | 119.1
188 K | 121.1
193 K | 126.6
198 K | 128.6
203 K | 132.5
208 K | 135.8
213 K | 138.8
218 K | 142.1
223 K | 146.7
228 K | 150.8
233 K | 155.3
238 K | 160.1
243 K | 165.6
248 K | 169.6
253 K | 173.1

CCCCCCCCCCCCCCCCCC(N)=O [octadecanamide]
Conditions | Molar enthalpy of transition or fusion, [1] | Normal melting temperature, [3] | Triple point temperature, [3] [K]
Crystal 1 | 13.1 kcal/mol and 13.2 kcal/mol | 106.6 °C and 107 °C | –
Crystal 2 | 0.526 kcal/mol | – | 298.7

[2], Crystal 2
Conditions | molar heat capacity at constant pressure [J/K/mol]
208 K | 318.2
213 K | 328.5
218 K | 336.6
223 K | 345.2
228 K | 353.1
233 K | 360.8
238 K | 367.6
243 K | 375.8
248 K | 385.6
253 K | 393.6
258 K | 403.2

CCCCCCCCCCCC(N)=O [dodecanamide]
Conditions | Molar enthalpy of transition or fusion, [1] | Normal melting temperature, [3] | Triple point temperature, [3]
Crystal 1 | 8.68 kcal/mol and 8.53 kcal/mol | 100.2 °C and 100.7 °C | –
Crystal 2 | 2.32 kcal/mol and 2.15 kcal/mol | – | 321.1 K and 322 K

[2], Crystal 2
Conditions | molar heat capacity at constant pressure [J/K/mol]
198 K | 213.3
203 K | 217.8
208 K | 223.3
213 K | 227.1
218 K | 231.8
223 K | 237.5
228 K | 242.2
233 K | 245.9
238 K | 251.2
243 K | 258.4
248 K | 263
253 K | 269.2
258 K | 274.3
263 K | 280.8

CCC(N)=O [propanamide]
Crystal
Conditions | Molar enthalpy of transition or fusion [kcal/mol] | Normal melting temperature [°C]
[1] | 3.08 | –
[3] | – | 79.5

CCCCCCCCCCCCCCCCCCCCCC(N)=O [docosanamide]
Crystal
Conditions | Molar enthalpy of transition or fusion | Normal melting temperature
[1] | 15.1 kcal/mol and 15.5 kcal/mol | –
[3] | – | 110.2 °C and 111.8 °C

[2], Crystal
Conditions | molar heat capacity at constant pressure [J/K/mol]
228 K | 420.4
233 K | 431.8
238 K | 439.8
243 K | 449.2
248 K | 461.3
253 K | 470.1
258 K | 480.5
263 K | 493
268 K | 500.2
273 K | 511.9
278 K | 523.7
283 K | 539.7
288 K | 548.1
293 K | 561.1
298 K | 568.7

CCCCC(N)=O [pentanamide]
Conditions | Molar enthalpy of transition or fusion, Crystal 1 | Molar enthalpy of transition or fusion, Crystal 2 | Molar enthalpy of transition or fusion, Crystal 3 [kcal/mol] | Normal melting temperature, Crystal 1 | Triple point temperature, Crystal 2 | Triple point temperature, Crystal 3 [K]
[1] | 4.28 kcal/mol and 4.61 kcal/mol | 0.287 kcal/mol and 0.253 kcal/mol | 0.454 | – | – | –
[3] | – | – | – | 104.1 °C and 103.6 °C | 365 K and 365.4 K | 211.8

[2]
Conditions | molar heat capacity at constant pressure [J/K/mol]
183 K, Crystal 3 | 111.5
188 K, Crystal 3 | 116.1
193 K, Crystal 3 | 118.5
198 K, Crystal 3 | 122.5
203 K, Crystal 3 | 128.9
208 K, Crystal 3 | 133.1
213 K, Crystal 2 | 139.1
218 K, Crystal 2 | 145.1
223 K, Crystal 2 | 154
228 K, Crystal 2 | 162.5
233 K, Crystal 2 | 175
238 K, Crystal 2 | 183.4
243 K, Crystal 2 | 195.4
248 K, Crystal 2 | 200.8
253 K, Crystal 2 | 199.8
258 K, Crystal 2 | 196.2
263 K, Crystal 2 | 191.6
268 K, Crystal 2 | 185.8
273 K, Crystal 2 | 189.4
278 K, Crystal 2 | 187.1
283 K, Crystal 2 | 188.4
288 K, Crystal 2 | 188.4
293 K, Crystal 2 | 190
298 K, Crystal 2 | 190.3
303 K, Crystal 2 | 192.6
308 K, Crystal 2 | 196.4
313 K, Crystal 2 | 198.4
318 K, Crystal 2 | 202.5
323 K, Crystal 2 | 204.5

CCCC(N)=O [butanamide]
Conditions | Molar enthalpy of transition or fusion, [1] [kcal/mol] | Normal melting temperature, [3] [°C]
Crystal | 4.59 | 114.2
Crystal 1 | 4.68 | 114.2

[2], Crystal
Conditions | molar heat capacity at constant pressure [J/K/mol]
183 K | 96.4
188 K | 98.3
193 K | 101.7
198 K | 104.1
203 K | 106.4
208 K | 108
213 K | 109.7
218 K | 112.5
223 K | 114.3
228 K | 116
233 K | 118.1
238 K | 120.8
243 K | 123
248 K | 125.9
253 K | 127.4
258 K | 130.2
263 K | 132.4
268 K | 135
273 K | 136.8
278 K | 139.3
283 K | 141.5
288 K | 143.7
293 K | 146.4
298 K | 147.7
303 K | 150.3
308 K | 153.5
313 K | 155
318 K | 158.8
323 K | 161.4

CCCCCCCCCC(N)=O [decanamide]
Conditions | Molar enthalpy of transition or fusion, Crystal 1 | Molar enthalpy of transition or fusion, Crystal 2 | Molar enthalpy of transition or fusion, Crystal 3 [kcal/mol] | Normal melting temperature, Crystal 1 | Triple point temperature, Crystal 2 | Triple point temperature, Crystal 3
[1] | 3.61 kcal/mol and 4.16 kcal/mol | 4.49 kcal/mol and 5.04 kcal/mol | 0.251 | – | – | –
[3] | – | – | – | 97.5 °C and 97.8 °C | 366.3 K and 366.9 K | 218.7 K and 218.7 K

[2], Crystal 2
Conditions | molar heat capacity at constant pressure [J/K/mol]
263 K | 236.4
268 K | 238.5
273 K | 247.6
278 K | 251.1
283 K | 260.7
288 K | 266.4
293 K | 270.2
298 K | 272.4
303 K | 278.5
308 K | 287
313 K | 291.6
318 K | 297.9
323 K | 304.4

CCCCCCCCCCCCCCCC(N)=O [hexadecanamide]
Conditions | Molar enthalpy of transition or fusion, [1] | Normal melting temperature, [3] | Triple point temperature, [3]
Crystal 1 | 10.9 kcal/mol and 10.8 kcal/mol | 103 °C and 102.5 °C | –
Crystal 2 | 2.49 kcal/mol and 2.46 kcal/mol | – | 355.5 K and 356.1 K

[2], Crystal 2
Conditions | molar heat capacity at constant pressure [J/K/mol]
208 K | 267.5
213 K | 273.7
218 K | 276.5
223 K | 282.8
228 K | 289
233 K | 297.1
238 K | 302.6
243 K | 310.3
248 K | 319.5
253 K | 323.8
258 K | 331.6
263 K | 340.1
268 K | 348.1
273 K | 357.9
278 K | 364.8
283 K | 371.6
288 K | 378.1
293 K | 387.6
298 K | 394.3
303 K | 401.8
